Reference: publication PMC10916400, “Effect of the aggregated protein dye YAT2150 on Leishmania parasite viability” (Antimicrobial Agents and Chemotherapy, 2024)

Experiments:
[1] = test system: L. infantum promastigotes; assay: microbe, parasite or virus in culture; type: cell-based, Leishmania infantum; settings: L. infantum promastigotes; for IC50: in vitro
Protocol: L. infantum (MHOM/ES/2016/CATB101) promastigotes were maintained at 26°C in complete Schneider’s medium (Schneider’s insect medium supplemented with 10% FBS, 25 µg/mL gentamycin, 1% penicillin-streptomycin, and 1% sterile human urine, pH 6.7). For growth inhibition assays, promastigotes were used in the logarithmic growth phase, whereas for the infection of macrophages and generation of amastigotes they were used in the stationary phase. Axenic amastigotes were obtained following established protocols ([40], [57][–][59]); briefly, 1 × 10^7 promastigotes/mL in stationary phase were cultured in Schneider’s insect medium supplemented with 20% FBS, 25 µg/mL gentamycin, and 3.9 g/L of 2-(N-morpholino)ethanesulfonic acid, at pH 5.4 and 37°C. After 48 h, the typical rounded morphology of axenic amastigotes and their flagellum shortening could be observed. This culture was used within a week after its preparation.
In 96-well microtiter plates (Nunclon Delta surface; Thermo Fisher Scientific Inc.), serial dilutions (1:2) of the drugs or peptides were performed, either free or loaded in nanoformulations, in 100 µL of complete Schneider’s medium, to which one volume of 2 × 10^6 logarithmic growth-phase L. infantum promastigotes/mL in the same buffer was added. After 48 h, resazurin sodium salt was incorporated at a final concentration of 0.00125% and the plates were incubated at 26°C for another 24 h, when fluorescence from resorufin was measured as described above.

[2] = test system: L. infantum amastigotes; assay: Amastigote growth inhibition assay (parasite rescue and transformation, RAW 264.7 macrophages); type: cell-based, Leishmania infantum; settings: in vitro
Protocol: Compound activity on amastigotes was determined following the parasite rescue and transformation assay ([61]). RAW 264.7 macrophages were seeded in 96-well microtiter plates at 10^5 cells/mL of DMEM supplemented with 10% FBS and 1% penicillin-streptomycin (complete DMEM, DMEMc) in a final volume of 200 µL per well. After an overnight incubation (37°C, 5% CO2) to allow cell adherence, the medium was removed and 10^6 L. infantum promastigotes/mL were added (1:10 macrophage:promastigote ratio) in DMEM supplemented with 2% FBS and 1% penicillin-streptomycin (DMEM 2% FBS). After 24 h, parasites not internalized by macrophages were removed by washing (3×, PBS) and dilutions in DMEM 2% FBS of free or liposome-encapsulated compounds were added. After 48 h, the medium was removed, cells were washed three times with PBS, and 40 µL of 0.05% SDS in complete Schneider’s medium was added; after 40 s, 160 additional µL/well of complete Schneider’s medium was added and plates were incubated at 26°C for another 48 h. Then, resazurin sodium salt was incorporated at a final concentration of 0.00125% and plates were incubated for 24 h more in the same conditions. Afterwards, resorufin fluorescence was measured as above.

[3] = in vitro; type: cell-based; settings: human umbilical vein endothelial cells, 48 h
Protocol: Human umbilical vein endothelial cells were maintained in M-199 supplemented with 10% fetal bovine serum (FBS) and 1% penicillin-streptomycin at 37°C, 5% CO2, and seeded in 96-well plates at a density of 50,000 cells/mL. After allowing cell adherence for 24 h, the medium was removed, and drugs or nanoformulations were added in M-199 supplemented with 1% penicillin-streptomycin. Plates were incubated for 48 h, and then, the medium in each well was replaced by 100 µL of M-199 containing penicillin-streptomycin and 0.00125% resazurin sodium salt (Sigma-Aldrich Corporation). Plates were incubated for 4 h, and resorufin fluorescence emission was measured (λex/em: 535/590 nm) in a Tecan Infinite 200 PRO equipment (Tecan Trading AG).

[4] = Solubility screen assay (nephelometry); type: physicochemical; settings: PBS with 1% DMSO; read-out: Aqueous solubility
Protocol: The stock solutions (10^‒2 M) of the assayed compounds were diluted to decreased molarity, from 300 μM to 0.1 µM, in a 384-well transparent plate (Greiner Bio-One, Madrid, Spain) with DMSO:PBS (1:99 vol/vol). After 2 h of incubation at 37°C, the plate was read in a NEPHELOstar Plus nephelometer (BMG LABTECH GmbH, Ortenberg, Germany) at 635 nm. The results were adjusted to a segmented regression to obtain the maximum concentration at which the compounds were soluble.

[5] = in vitro; type: in vitro ADME; settings: 37°C
Protocol: Plates (96-well Polypropylene Deep Well Plate; Corning Inc., Somerville, MA, US) containing 100 µL of 5 µM compounds in human plasma (Seralab, Granollers, Spain), pooled from healthy donors and extracted in citrate tubes, were incubated at 37°C for different times (0, 60, 120, and 360 min). Then, 300 µL ACN was added to precipitate plasma protein, and the plate was centrifuged at 4000 × g for 60 min at 4°C. For sample quantification, the resulting supernatant was taken and analyzed by ultra performance liquid chromatography with tandem mass spectrometry (UPLC-MS/MS; ACQUITY Xevo TQD UPLC QSM; Waters) in an ACQUITY BEH C18 column (1.7 µm, 2.1 × 50 mm; Waters). As mobile phase (0.6 mL/min flow rate) was used the following gradient of 0.1% formic acid in water (A) or in ACN (B): 95% A:5% B from 0 to 0.1 min, gradual increase to 100% B from 0.1 to 1 min, maintenance in 100% B from 1 to 2 min, return to 95% A:5% B from 2 to 2.1 min, and maintenance of this ratio from 2.1 to 2.5 min. Compound concentrations were calculated from the MS peak areas.

[6] = test system: P. falciparum; design: method as in PMID 36271358; settings: read-out: IC50 in in vitro P. falciparum cultures; cited from earlier work

## CCN(CC)c1ccc(/C=C/c2cc[n+](CCCCCCCCCC[n+]3ccc(/C=C/c4ccc(N(CC)CC)cc4)c(C)c3)cc2C)cc1 [YAT2150]
[1]
  in vitro IC10: 150 nM
  in vitro IC40: 300 nM
  IC50: ~500 nM
[1]; Leishmania infantum
  IC50: ~520 nM
[2]; L. infantum amastigotes in RAW 264.7 macrophages
  IC50: 510 ± 110 nM
[2]; Leishmania infantum, RAW264.7, L. infantum amastigotes in RAW 264.7 macrophages
  IC50: ~520 nM
[3]
  CC50: 3400 ± 500 nM
[4]
  solubility at 2 h: 8.5 µM
[5]; human plasma, after 6 h
  % remaining, plasma stability: 91.3%
[5]; human, plasma, after 1 h, read-out: % remaining, plasma stability
  remaining at 1 h, 5 µM: 100%
[5]; human, plasma, after 2 h, read-out: % remaining, plasma stability
  remaining at 2 h, 5 µM: 99.7%
[5]; human, plasma, after 6 h, read-out: % remaining, plasma stability
  remaining at 6 h, 5 µM: 91%
[6]
  IC50: ~90 nM
